# B1: TGF-β3 (ligand)
# chain: NCCVRPLYIDFRQDLGWKWVHEPKGYYANFCSGPCPYLRSADTTHSTVLGLYNTLNPEASASPCCVPQDLEPLTILYYVGRTPKVEQLSNMVVKSCKCS
# B2: native extract bovine FMOD: native extract bovine FMOD, comparator in ELISA (protein)
# chain: QYEEDSHWWFQFLRNQQSTYDDPYDPYPYEPYEPYPYGGEEGPAYAYGSPPQPEPRDCPQECDCPPNFPTAMYCDNRNLKYLPFVPSRMKYVYFQNNQISSIQEGVFDNATGLLWIALHGNQITSDKVGKKVFSKLRHLERLYLDHNNLTRIPSPLPRSLRELHLDHNQISRVPNNALEGLENLTALYLHHNEIQEVGSSMKGLRSLILLDLSYNHLRKVPDGLPSALEQLYLEHNNVFSVPDSYFRGSPKLLYVRLSHNSLTNNGLASNTFNSSSLLELDLSYNQLQKIPPVSTNLENLYLQGNRINEFSISSFCTVVDVMNFSKLQVLRLDGNEIKRSAMPADAPLCLRLASLIEI
# Tests used:
# TGF-β2 = molecular target: T1, TGF-β2 (Homo sapiens, UniProt P61812); experiment: TGF-β2 binding to biotinylated FMOD/FMOD peptides on avidin resin; non-bound TGF-β read by Mv1Lu growth inhibition (MTT); settings: ratios 1:1, 10:1, 100:1, 1000:1 to TGF-β; FIG. 14
# T1 sequence (P61812 303-414 limits assumed): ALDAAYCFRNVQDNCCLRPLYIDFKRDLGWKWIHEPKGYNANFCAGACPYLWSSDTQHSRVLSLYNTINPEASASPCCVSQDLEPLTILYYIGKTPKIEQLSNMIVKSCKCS
# Experimental: (§1) FMOD (whole protein) (SEQ ID NO:1), FMOD peptides and control protein BSA were biotinylated. While, the biotinylated proteins and peptides were bound to commercial available Piece Monomeric Avidin UltraLink Resin (Piece). The amounts of each test peptides/proteins are 1:1, 10:1, 100:1 and 1000:1 to TGF-βs, respectively. After washing out the non-bound residues, appropriate amount TGF-βs (based on the primary test assay) were added to the resin at 4° C. After overnight binding, non-bound TGF-βs were collected, followed by filter sterilization. Then, the TGF-βs residue were diluted 100 times in DEME-0.5% FBS to ensure the concentration was located in the linear region of TGF-βs on Mv1Lu proliferate inhibition.
# (§2) Diluted TGF-βs was added to overnight serum-starved Mv1Lu, and fresh TGF-βs media were added for another 24 hour before MTT assay. Samples with no TGF-βs added were employed as controls.
# TGF-β1 [1] = molecular target: T2, TGF-β1 (Homo sapiens, UniProt P01137); experiment: TGF-β1 binding to biotinylated FMOD/FMOD peptides on avidin resin; non-bound TGF-β read by Mv1Lu growth inhibition (MTT); settings: ratios 1:1, 10:1, 100:1, 1000:1 to TGF-β; overnight 4° C.; FIG. 13
# T2 sequence (P01137 279-390 limits assumed): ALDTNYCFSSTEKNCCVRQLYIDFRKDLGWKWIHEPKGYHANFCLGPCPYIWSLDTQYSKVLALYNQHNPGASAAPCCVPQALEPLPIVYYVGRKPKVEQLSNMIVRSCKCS
# Experimental: as §1, §2
# TGF-β3 = molecular target: T3, TGF-β3 (Homo sapiens, UniProt P10600); experiment: TGF-β3 binding to biotinylated FMOD/FMOD peptides on avidin resin; non-bound TGF-β read by Mv1Lu growth inhibition (MTT); settings: ratios 1:1, 10:1, 100:1, 1000:1 to TGF-β; FIG. 15
# T3 sequence (P10600 301-412 limits assumed): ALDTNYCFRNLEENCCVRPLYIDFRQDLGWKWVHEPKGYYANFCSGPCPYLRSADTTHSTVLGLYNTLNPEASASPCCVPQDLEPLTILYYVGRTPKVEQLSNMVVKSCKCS
# Experimental: as §1, §2
# [2] = tested on: α-smooth muscle actin (α-SMA) expression; experiment: α-SMA expression staining; format: cell-based; settings: mono-treatment (200 nM FMOD or 100 pM TGF-β1); FIGS. 25B, 25C
# Experimental: Exemplary tests on effects of FMOD and TGF-β or FMOD peptides and TGF-β on α-SMA expression were performed and shown in FIGS. 25A-25D. Expression levels of α-SMA, which is a marker for the transition of fibroblasts to myofibroblasts, were measured and presented in staining in these figures.
# Rat-2 cells [3] = experiment: H&E morphology of Rat-2 cells; format: cell-based
# Experimental: Exemplary tests were performed to better delineate cell morphology.
# [4] = tested on: connective tissue growth factor (CTGF) expression; experiment: CTGF expression and cell aggregation in Rat-2 cells, confocal staining; format: cell-based
# Experimental: Results of exemplary tests on each of FMOD and FMOD-P, alone or in combination with TGF-β on CTGF expression are shown in FIGS. 28A-28D. In these tests, 4,000 cells/well passage 18 Rat-2 cells were seeded in 8-well chamber slices in DMEM medium with 10% FBS. After 6 h adhesion, fresh DMEM medium with 0.5% FBS was employed for overnight serum starvation and then treatment media added. Treatment media were changed after 24 h. Cells were fixed and staining at 48 h. Photos were captured at 630× magnifications using a confocal microscope. In these figures, the cells were stained for CTGF (connective tissue growth factor, a factor involved in cell proliferation, migration and matrix production) or DAPI (4′,6-diamidino-2-phenylindole a fluorescent stain that binds strongly to DNA-used for nuclear staining). Merged images showing both CTGF and DAPI staining are also shown.
# [5] = molecular target: T4, Bovine serum albumin (BSA) (bovine, UniProt P02769 25-607); experiment: biotinylated protein on avidin resin, unbound TGF-β read by Mv1Lu growth inhibition (MTT)
# T4 construct: also called control BSA; control protein BSA
# T4 sequence (P02769 25-607 limits assumed): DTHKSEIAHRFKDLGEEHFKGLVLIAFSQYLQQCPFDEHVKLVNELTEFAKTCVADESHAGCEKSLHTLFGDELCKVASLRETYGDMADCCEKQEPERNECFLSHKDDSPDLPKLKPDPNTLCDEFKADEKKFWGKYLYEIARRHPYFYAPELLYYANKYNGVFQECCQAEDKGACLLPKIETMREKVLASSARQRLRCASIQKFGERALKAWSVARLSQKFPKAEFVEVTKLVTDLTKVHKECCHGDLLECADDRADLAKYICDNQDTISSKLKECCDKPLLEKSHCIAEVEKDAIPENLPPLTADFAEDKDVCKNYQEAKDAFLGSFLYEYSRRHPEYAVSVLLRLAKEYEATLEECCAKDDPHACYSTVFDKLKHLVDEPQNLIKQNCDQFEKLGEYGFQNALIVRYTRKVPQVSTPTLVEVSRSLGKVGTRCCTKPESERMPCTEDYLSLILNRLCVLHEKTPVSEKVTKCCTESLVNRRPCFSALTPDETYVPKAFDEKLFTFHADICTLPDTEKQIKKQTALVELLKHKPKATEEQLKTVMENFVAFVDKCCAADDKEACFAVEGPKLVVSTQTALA
# Experimental: as §1, §2
# Rat-2 cells [6] = experiment: Rat-2 cell migration by scratching method; format: cell-based; settings: alone (200 nM FMOD or 100 pM TGF-β), 24 hours
# Experimental: 1×10^6 cell/well Rat-2 cells were seeded in 6-well plated with 3 ml DMEM-10% FBS. After 6 hours for adhesion, fresh DMEM-0.5% FBS medium was changed for serum-starving overnight. After pre-warmed DMEM rinsing, four wounds (each 1 mm wide; two horizontal and two vertical) were scratched employing a 1-ml tip for each treatment group. Cells were rinsed by DMEM for three times, followed by incubation with treatment medium [DMEM-0.5 FBS containing 100 pM (2.5 ng/ml) TGF-β1 (SEQ ID NO:64) or -β3 (SEQ ID NO:66) w/o 200 nM (11.2 μg/ml) FMOD (SEQ ID NO:1)] for 24 hours. Photos were captured at both 0-h and 24-h after the scratching. The unclosed distance was measured and quantified as an average gap (A) and migration index (B). Similar results were reproduced in four independent experiments. The scale bar in (A) equal to 100 The asterisks in (B) present P<0.05.
# (§3) Similar to FMOD (whole protein), the effect of FMOD peptides and/or TGF-β on cell migration was also evaluated by scratching method (FIGS. 18C and 25D). At the same time, cell migration/invasion in Matrigel was documented at 100× magnificent after 24 hour treatment and quantitated using DAPI nuclear staining (100 rather than 200× magnification was used because one group's invasion is quite low) (see the results in FIG. 20A and DAPI pictures in FIG. 20B). Passage 18 Rat-2 cells (20,000 cells/well) were used for the test under the treatment of 100 pM TGF-β1 (SEQ ID NO:64)/133 (SEQ ID NO:66) with/without 200 nM FMOD-F07-40C in DMEM-0.5% FBS.
# Rat-2 cells [7] = experiment: Rat-2 cell migration/invasion in Matrigel, DAPI nuclear staining; format: cell-based; settings: alone (200 nM FMOD or peptide, or 100 pM TGF-β), 24 hour treatment
# Experimental: Cell migration/invasion in Matrigel was documented at 200× magnificent after 24 hour treatment and quantitated using DAPI nuclear staining (results shown in FIG. 19A and repeat results in FIGS. 26B and 26C; DAPI pictures are shown in FIG. 19D).
# as §3
# Passage 18 Rat-2 cells (20,000 cells/well) were used for the test under the treatment of 100 pM TGF-β1/β3 with/without 200 nM FMOD-F06-40C in DMEM-0.5% FBS (FIG. 20C).
# TGF-β1 [8] = molecular target: T2, TGF-β1; experiment: ELISA analysis of binding with TGF-β1; settings: BSA as negative control; FIG. 3
# Description: Bovine serum albumin (BSA) was used as negative control.
# SUMO-CAT from the recombinant bacteria harboring control plasmid pET_SUMO/CAT was used as negative control. To the knowledge of inventors, the TGF-binding sites within FMOD have not been reported.
molecule,measurement,setting,value
"Bovine serum albumin [BSA, reference compound]",TGF-β2 binding,TGF-β2,minimal TGF-β2 binding
same,TGF-β1 binding,TGF-β1 [1],minimal TGF-β1 binding except at very high ratios
same,TGF-β3 binding,TGF-β3,did not bind to TGF-β3 even at high ratios
"TGF-β1: TGF-β isoform, SEQ ID NO:64",α-SMA staining,[2],moderate α-SMA staining
same,"nodule-like cell aggregations/condensations, number","Rat-2 cells [3]; 100 pM TGF-β1 alone, 8-well chamber slides",< one
same,cell aggregation/density (H&E),"Rat-2 cells [3]; mono-treatment (200 nM FMOD or 100 pM TGF-β1), relative to controls",slightly increased the Rat-2 cell density
same,CTGF expression,"[4]; mono-treatment (200 nM FMOD or 100 pM TGF-β1), 48 h, FIGS. 21B, 21C",moderate CTGF expression
same,CTGF expression (green fluorescence),"[4]; mono-treatment, another set of similar studies, FIG. 24",increases expression of CTGF
B1,binding result,[5],no binding
same,"cell migration, scratch",Rat-2 cells [6],inhibited migration
same,cell migration/invasion in Matrigel,Rat-2 cells [7],inhibited migration
B2,binding with TGF-β1 in ELISA assay,TGF-β1 [8],able to bind with TGF-β1
